In patent US6926890B2, “Non-invasive approach for assessing tumors in living animals” (priority 2000, dated 2005):
Entries after “also recorded” stand apart in the source; their conditions may differ.

B1: β-hCG: β-subunit of human chorionic gonadotropin, glycoprotein hormone secreted by recombinant tumor cells as urinary marker (protein)
chain: SKEPLRPRCRPINATLAVEKEGCPVCITVNTTICAGYCPTMTRVLQGVLPALPQVVCNYRDVRFESIRLPGCPRGVNPVVSYAVALSCQCALCRRSTTDCGGPKDHPLTCDDPRFQDSSSSKAPPPSLPSPSRLPGPSDTPILPQ

Tests used:
EMT6-CG tumors = assay: Ganciclovir treatment of control EMT6-CG tumors monitored by urinary β-hCG; assay type: in vivo, Balb/c mice; conditions: control EMT6-CG tumors without thymidine kinase
Protocol: (§1) FIG. 5C. Urinary β-hCG levels before and after ganciclovir (GCV) treatment of intraperitoneal tumors. Five Balb/c mice were injected intraperitoneally with 4×10^6 EMT6-CG-TK cells (black symbols). They received a four-day course of ganciclovir (150 mg/kg/day), administered intraperitoneally beginning three days after tumor cell injection.
(§2) The β-hCG MAIAclone kit (Polymedco Inc. Cortlandt Manor, N.Y.), based on an immunoradiometric system, was used for quantitative determination of urinary β-hCG. Fifty μl of mouse urine samples diluted to achieve a final β-hCG concentration of 2.5-20 mIU/ml, standards, positive and negative controls were mixed with 0.5 ml of ^125I anti-hCG antibodies in 12×75 mm glass tubes (VWR Scientific, Boston, Mass.) and incubated at 37° C. for 15 min. […] The radioactivity of each sample was analyzed in a Gamma 5500 counter (Beckman, Fullerton, Calif.). […] Urinary β-hCG levels were normalized to urinary creatinine measured with a Roche Hitachi 917 analyzer (Roche Diagnostics, Indianapolis, Ind.). The ratio of β-hCG to creatinine was expressed as mIU β-hCG/mg creatinine.
(§3) Next the recombinant tumor system of the present invention was applied to a chemotherapeutic model. […] The difference between the kinetics of tumor cell death mediated by surgery and chemotherapy is readily evident through comparison of FIGS. 5A and 5C.

EMT6-CG-TK cells = assay: Ganciclovir treatment of intraperitoneal EMT6-CG-TK tumors monitored by urinary β-hCG; assay type: in vivo, Balb/c mice
Protocol: as §1, §2, §3

[1] = Clearance of urinary β-hCG after surgical removal of subcutaneous SW480-CG tumors; assay type: in vivo, athymic (nu/nu) mice
Protocol: Female mice, 10-12 weeks old, were obtained from Harlan (Indianapolis, Ind.). For tail vein injections, 10^5 B 16-CG cells in 0.1 ml PBS were injected into C57BL/6 mice. For intraperitoneal administration, 2×10^6 EMT6-CG cells in 0.3 ml PBS were injected intraperitoneally into Balb/c mice. For intrasplenic injection, 10^6 B16-CG cells in 0.1 ml PBS were injected into the spleens of athymic (nu/nu) mice. For subcutaneous injection, 3×10^6 B16-CG cells or 8×10^6 SW480-CG cells in 0.1 ml PBS were injected into subcutaneous tissues adjacent to the lower spine of athymic (nu/nu) mice.
as §2, with “creatinine. […]” for “creatinine.”

[2] = Comparison of β-hCG concentrations in urine and serum of mice with subcutaneous B16-CG tumors; assay type: in vivo; conditions: serum 10-240 mIU/ml, six mice
Protocol: The β-hCG MAIAclone kit (Polymedco Inc. Cortlandt Manor, N.Y.), based on an immunoradiometric system, was used for quantitative determination of urinary β-hCG. Fifty μl of mouse urine samples diluted to achieve a final β-hCG concentration of 2.5-20 mIU/ml, standards, positive and negative controls were mixed with 0.5 ml of ^125I anti-hCG antibodies in 12×75 mm glass tubes (VWR Scientific, Boston, Mass.) and incubated at 37° C. for 15 min. Two hundred μl of the magnetic separation matrix provided with the kit was then added to each tube and incubated for 5 min at room temperature. The magnetic reagent with bound β-hCG was separated using a magnetic concentrator (Polymedco Inc.). The matrix was washed in 0.5 ml of the MAIAclone washing buffer provided with the kit and reseparated magnetically. The radioactivity of each sample was analyzed in a Gamma 5500 counter (Beckman, Fullerton, Calif.). The minimal detectable level of β-hCG was 2.5 mIU/ml. Urinary β-hCG levels were normalized to urinary creatinine measured with a Roche Hitachi 917 analyzer (Roche Diagnostics, Indianapolis, Ind.). The ratio of β-hCG to creatinine was expressed as mIU β-hCG/mg creatinine.
To determine whether β-hCG would be excreted in the urine of mice, as it is in pregnant women, the concentrations of β-hCG in urine and serum of mice with subcutaneous B16-CG tumors were compared. […]

Molecule	Tumor response to ganciclovir (urinary β-hCG) (EMT6-CG tumors)	Urinary β-hCG levels after ganciclovir treatment (EMT6-CG-TK cells; ganciclovir 150 mg/kg/day intraperitoneally, four-day course beginning three days after tumor cell injection)	Necropsy finding after ganciclovir treatment (EMT6-CG-TK cells; necropsy after β-hCG declined to background)	half-life of urinary β-hCG ([1]; after surgical removal of SW480-CG tumors, eight animals)	Urinary β-hCG levels after tumor removal ([1]; subcutaneous SW480-CG tumors removed 18 days after implantation, within a day or two of removal)	urine concentration relative to serum concentration of β-hCG [2]
Nc1nc(O)c2ncn(COC(CO)CO)c2n1 [ganciclovir]	did not respond; also recorded: continued to grow	began to decline one day after the start of ganciclovir treatment; also recorded: declined to background levels over the next five days	apparently tumor free, without ascites or peritoneal implants			
B1				11 ± 2.3 h	rapidly dropped to undetectable levels	3.8±0.31 times the serum concentration
